Laboratory results published in patent publication US20230054563A1, “COMPOSITION AND METHODS OF MANUFACTURE” (Phoenix Eagle Company Pty Ltd, priority 2019, published 2023).
Entries after “also recorded” stand apart in the source; their conditions may differ.

Tests used:
[1] = system: proteolytic activity of OPAL B filtrate (cysteine and serine proteases); assay: Effect of protease inhibitors on L-BApNA proteolytic activity of OPAL B filtrate; format: biochemical, Carica papaya; settings: inhibitor added to OPAL B filtrate
Procedure: (§1) A 1.5 mM stock solution of L-BApNA (B-3133 sigma) was prepared by dissolving 63 mg of L-BApNA in 1.5 ml dimethyl sulfoxide (DMSO), and then made up to 100 ml with water. Hydrolysis of the L-BApNA at the bond between the arginine and the p-nitroaniline moieties releases the chromophore p-nitroaniline, which can be detected by spectroscopy at an absorbance of 410 nm in International Units (IU). IU is defined as the amount of enzyme that causes an increase in absorbance of 0.01 units/min under excess substrate conditions (zero order kinetics). Solids specific activity is expressed in IU/mg, while in the case of liquid formulations, the activity is expressed in IU/mL.
(§2) We therefore previously concluded that the protease activity in OPAL A is essentially due only to the presence of active cysteine proteases. To determine the effect of omitting the heat treatment step, the protease activity in both OPAL A and OPAL B filtrates was tested using an L-BApNA assay. After 10 minutes, E-64 inhibitor was added.
To better understand the non-thiol dependent or non-cysteine proteases in the OPAL B filtrate, enzymatic assays were carried out initially using a Protease Inhibitor Cocktail (PIC) (sigma P2714), containing all the essential protease inhibitors (see Table 3).

[2] = system: cysteine protease(s) and serine protease(s) in OPAL B filtrate; assay: Overlay zymography of OPAL B filtrate with L-BApNA membrane, with or without inhibitors; format: biochemical, Carica papaya; settings: inhibitor on nitrocellulose membrane; upper band cysteine, lower band serine protease(s)
Procedure: Overlay-zymography was carried out according to the procedure in Vinokurov et al. (2005) with some modifications (FIG. 1). Briefly, a nitrocellulose membrane was soaked in a 1.2 mg/mL L-BApNA solution in water. The membrane was subsequently left to air dry for 5 minutes and then laid on top of the native PAGE gel after running the samples through, which were slightly soaked in their respective running buffers. Two additional experiments were carried out in which membranes were soaked in […] R-alanine, 0.14 M acetic acid, pH 4.3, with either 10 mM DTT or 25 mM cysteine. All zymographies were then incubated in a closed chamber at 37° C. for 30-60 min. The membrane was removed and again left to dry for 5 minutes and the p-nitroaniline was visualized by diazotization.
Diazotization was performed by following the protocol detailed in Hosseininaveh et al. (2009). […]
OPAL B filtrate appears to be a complex mixture of many proteins. Therefore, to individually visualize the protease activities that were detected by spectrophotometry assays, we used a technique called overlay zymography. […]

[3] = system: active serine protease in OPAL B filtrate; assay: Serine protease reactivity probe, SDS PAGE western blotting of OPAL B filtrate; format: biochemical, Carica papaya
Source text: To establish which of the different bands corresponded to a proteolytically active form of subtilase in the OPAL B filtrate, we used a reactivity probe, which specifically labels active serine proteases via a fluorosulfonate group linked to biotin. This reactivity probe can then be visualized on a regular SDS PAGE gel via western blotting technique, using streptavidin-conjugated enzymes such as alkaline phosphatase. Using this technique allowed the visualization of the active serine protease band inhibited by AEBSF treatment at around 50 kDa as shown in FIG. 11.

[4] = system: cysteine protease activity of OPAL A; assay: Effect of E-64 on protease activity of OPAL A; format: biochemical, Carica papaya; settings: previously established, unpublished data
Procedure: as §2

[5] = L-BApNA proteolytic activity assay (A410); format: biochemical
Procedure: as §1
To determine the optimal substrate concentration to maintain zero order kinetics throughout experiments, a series of titration runs were carried out with a range of substrate concentrations. The minimum concentration thus found is […] or 1:6 dilution of the stock 1.5 mM solution. […] Phosphate buffer at pH 6 was used in the L-BApNA assays because it gave the highest enzymatic activity reading compared to other buffers.
Hydrolysis of L-BApNA in the presence of protease, at the bond between the arginine and p-nitroaniline moieties, releases the chromophore p-nitroaniline, which can then be detected by spectroscopy at a wavelength of 410 nm. […]

Molecule	inhibition of L-BApNA proteolytic activity of OPAL B filtrate [1]	inhibition of zymography bands of OPAL B [2]	effect on active serine protease band at around 50 kDa labelled by reactivity probe [3]	inhibition of cysteine protease activity of OPAL A [4]	activity of pure latex papain [5]
NCCc1ccc(S(=O)(=O)F)cc1 [AEBSF]	able to halt proteolytic activity	inhibition of lower band	inhibited		
CC(C)C[C@H](NC(=O)[C@H]1C[C@@H]1C(=O)O)C(=O)NCCCCNC(=N)N [E-64, (1S,2S)-2-(((S)-1-((4-Guanidinobutyl)amino)-4-methyl-1-oxopentan-2-yl)carbamoyl) cyclopropane carboxylic acid]	did not result in complete inhibition of activity; also recorded: able to halt proteolytic activity	complete inhibition of upper band		essentially abolished	
pure latex papain: Pure latex papain, reference for specific L-BApNA activity (protein, UniProt P00784 134-345, looked up) Papain: IPEYVDWRQKGAVTPVKNQGSCGSCWAFSAVVTIEGIIKIRTGNLNEYSEQELLDCDRRSYGCNGGYPWSALQLVAQYGIHYRNTYPYEGVQRYCRSREKGPYAAKTDGVRQVQPYNEGALLYSIANQPVSVVLEAAGKDFQLYRGGIFVGPCGNKVDHAVAAVGYGPNYILIKNSWGTGWGENGYIRIKRGTGNSYGVCGLYTSSFYPVKN					around 10 IU/mg
